Assay results taken from patent publication US20220348595A1, “COMPOUNDS AND METHODS FOR THE TARGETED DEGRADATION OF ESTROGEN RECEPTORS” (Endotarget Inc., priority 2021, published 2022).
pIC50: −log10 of the molar value.

How the values were obtained:
Assay type in all cases: cell-based
ER = biological target: T1, ER (Homo sapiens, UniProt P03372); test: ER antagonism (T47D ERE luciferase), T47d-kb-Luc cells; conditions: read-out: IC50 (ER antagonistm)
T1 construct: endogenous in cells; host or cells: T47d-kb-Luc (T47D stably transfected with a luciferase reporter gene only)
T1 sequence (P03372 1-595): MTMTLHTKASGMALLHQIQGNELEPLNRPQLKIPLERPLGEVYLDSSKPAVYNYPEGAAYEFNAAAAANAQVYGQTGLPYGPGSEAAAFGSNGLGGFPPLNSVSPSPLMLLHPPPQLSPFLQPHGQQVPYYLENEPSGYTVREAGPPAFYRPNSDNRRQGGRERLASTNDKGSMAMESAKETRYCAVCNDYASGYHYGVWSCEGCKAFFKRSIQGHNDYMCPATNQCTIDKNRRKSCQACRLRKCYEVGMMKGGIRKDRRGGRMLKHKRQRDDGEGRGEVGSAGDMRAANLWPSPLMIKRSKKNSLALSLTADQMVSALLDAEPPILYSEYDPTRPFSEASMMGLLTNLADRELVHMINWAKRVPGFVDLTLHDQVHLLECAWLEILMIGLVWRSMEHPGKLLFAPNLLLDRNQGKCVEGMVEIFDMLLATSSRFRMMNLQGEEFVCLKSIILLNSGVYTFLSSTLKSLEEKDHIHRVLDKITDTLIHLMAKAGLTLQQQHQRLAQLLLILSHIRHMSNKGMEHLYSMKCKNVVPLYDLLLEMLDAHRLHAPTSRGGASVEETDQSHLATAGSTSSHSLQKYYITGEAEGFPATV
Method: The Antiestrogenic Activity of the Exemplary Compounds was Assessed in T47d-kb-Luc Stably Transfected Human Breast Cancer Cell
Antagonist activities were measured by the compound's ability to inhibit the activity of estradiol, the natural estrogen. Data were then normalized relative to the activity of the estradiol control and determinations were performed for five concentrations of the samples in quadruplicate in at least three separate experiments.

[1] = tested on: MCF-7 breast cancer cells; test: MCF-7 proliferation / cell viability assay; conditions: Homo sapiens, MCF7; MCF-7 proliferation with 0.1 nM 17-beta estradiol; read-out: IC50 (anti-proliferation)
Method: The Anti-Proliferative Activities of the Exemplary Compounds were Assessed by a Cell Viability Assay in MCF-7 Breast Cancer Cells
MCF-7 cells were plated in six-well plates at a density of 50,000 each well in 5% FBS DMEM medium. The cells were then treated with exemplary compounds or fulvestrant separately at 6 different doses ranging from 10^−10 M to 10^−5 M for 5 days, while equal volumes of DMSO were used as vehicle controls. Viable cell numbers were counted with a Z Series Coulter Counter instrument (Beckman-Coulter) following manufacturer's instructions. The ratio of drug treated viable cell numbers to vehicle treated viable cell numbers was defined as survival ratio where the control has the survival ratio of 100%.

ERα = biological target: T2, ERα (Homo sapiens, UniProt P03372); test: ER degradation in MCF-7 cells (Western blot); conditions: for DC50: ER degradation, 24 hours; for Dmax: MCF7, Maximal ER degradation, read-out: Dmax
T2 construct: endogenous in cells; host or cells: MCF-7
T2 sequence (P03372 1-595): T1 sequence (P03372 1-595)
Method: Degradation of ER in MCF-7 Breast Cancer Cells by Exemplary Compounds of the Present Disclosure
MCF-7 cells were plated in 24-well plates at a density of 10^5 cells/well. Media containing various drug concentrations were added on the day following plating (day 0) and allowed to incubate for 24 hours for Western blot. Media with the tested compound was changed every other day. Cells were lysed, snapped frozen in liquid nitrogen, and stored at −80° C. until assay for ERα. Media were removed and dishes were washed with 1× DPBS. Lysates were made by adding 150 μL of complete lysis solution and scraping cells into a 1.5 mL microcentrifuge tube. Lysates were placed on a rotisserie at 4° C. for 30 min and then spun at 4° C. at 12000 rcf for 10 min. Supernatants were assayed for protein content, snap-frozen, and stored a −80° C. if not run immediately. Then 50 μg of protein was subjected to Western blot protocol. Membranes were blocked and then incubated with 1:200 dilution of ERα antibody at 4° C. overnight followed by 1:10000 dilution of secondary antibody for 1 h at room temperature. They were then imaged on a LICOR infrared scanner.
FIGS. 1 to 10 show the ER degradation efficacy of compounds 3, 5, 9, 11, 12, 16, 18, 19, 20, 21, 23, 24, 25, 26, 27, 28, 29, 30, 31, 32, 33, 34, 37, 38, and 40 in MCF-7 cells at various concentrations. Degradation of ER was expressed as an DC50 value and was determined for exemplary compounds in Table 1 by calculation of the concentration of compound that was required to give a 50% reduction of ER expression level. Maximal degradation of ER was expressed as a Dmax value by measuring the highest percentage of ER reduction achieved by exemplary compound in the treatment concentration range.

Row | pIC50 (ER) | pIC50 [1] | DC50 (ERα) [nM] | Dmax (ERα) [%] | Structure (SMILES)
1 | 7.30 to 8.00 | 7.30 to 8.00 | 10 to 50 | > 90 | CC/C(=C(/c1ccc(OCCN2CCC(CCN3CCN(c4ccc5c(c4)CN(C4CCC(=O)NC4=O)C5=O)CC3)CC2)cc1)c1ccc(B(O)O)cc1)c1ccccc1 (centres unmarked) [Compound 29, (Z)-(4-(1-(4-(2-(4-(2-(4-(2-(2,6-dioxopiperidin-3-yl)-1-oxoisoindolin-5-yl)piperazin-1-yl)ethyl)piperidin-1-yl)ethoxy)phenyl)-2-phenylbut-1-en-1-yl)phenyl)boronic acid]
2 | 7.30 to 8.00 | 7.30 to 8.00 | < 10 | > 90 | CC/C(=C(\c1ccc(OCCN2CCC(CCN3CCN(c4ccc5c(c4)CN(C4CCC(=O)NC4=O)C5=O)CC3)CC2)cc1)c1ccc(B(O)O)cc1)c1ccccc1 (stereo not drawn) [Compound 30, (E)-(4-(1-(4-(2-(4-(2-(4-(2-(2,6-dioxopiperidin-3-yl)-1-oxoisoindolin-5-yl)piperazin-1-yl)ethyl)piperidin-1-yl)ethoxy)phenyl)-2-phenylbut-1-en-l-yl)phenyl)boronic acid]
3 | < 7.30 | < 7.30 | 10 to 50 | > 90 | CC/C(=C(/c1ccc(OCCN2CCC(N3CCN(c4ccc5c(c4)C(=O)N(C4CCC(=O)NC4=O)C5=O)CC3)CC2)cc1)c1ccc(B(O)O)cc1)c1ccccc1 (centres unmarked) [Compound 31, (Z)-(4-(1-(4-(2-(4-(4-(2-(2,6-dioxopiperidin-3-yl)-1,3-dioxoisoindolin-5-yl)piperazin-1-yl)piperidin-1-yl)ethoxy)phenyl)-2-phenylbut-1-en-1-yl)phenyl)boronic acid]
4 | 7.30 to 8.00 | 7.30 to 8.00 | < 10 | > 90 | CC/C(=C(/c1ccc(OCCN2CCC(C3CCN(c4ccc5c(c4)C(=O)N(C4CCC(=O)NC4=O)C5=O)CC3)CC2)cc1)c1ccc(B(O)O)cc1)c1ccccc1 (centres unmarked) [Compound 33, (Z)-(4-(1-(4-(2-(1′-(2-(2,6-dioxopiperidin-3-yl)-1,3-dioxoisoindolin-5-yl)-[4,4′-bipiperidin]-1-yl)ethoxy)phenyl)-2-phenylbut-1-en-1-yl)phenyl)boronic acid]
5 | 7.30 to 8.00 | 7.30 to 8.00 | < 10 | > 90 | CC/C(=C(/c1ccc(OCCN2CCN(CCCN3CCN(c4ccc5c(c4)C(=O)N(C4CCC(=O)NC4=O)C5=O)CC3)CC2)cc1)c1ccc(B(O)O)cc1)c1ccccc1 (centres unmarked) [Compound 37, (Z)-(4-(1-(4-(2-(4-(3-(4-(2-(2,6-dioxopiperidin-3-yl)-1,3-dioxoisoindolin-5-yl)piperazin-1-yl)propyl)piperazin-1-yl)ethoxy)phenyl)-2-phenylbut-1-en-1-yl)phenyl)boronic acid]
6 | 7.30 to 8.00 | 7.30 to 8.00 | 10 to 50 | > 50 | CC/C(=C(\c1ccc(OCCN2CCN(c3ccc4c(c3)C(=O)N(C3CCC(=O)NC3=O)C4=O)CC2)cc1)c1ccc(B(O)O)cc1)c1ccccc1 (centres unmarked) [Compound 42, (E)-(4-(1-(4-(2-(4-(2-(2,6-dioxopiperidin-3-yl)-1,3-dioxoisoindolin-5-yl)piperazin-1 yl)ethoxy)phenyl)-2-phenylbut-1-en-1-yl)phenyl)boronic acid]

The remaining lines, values behind:

Row | Structure (SMILES) | pIC50 (ER) | pIC50 [1] | DC50 (ERα) [nM] | Dmax (ERα) [%]
7 | CC/C(=C(\c1ccc(OCCN2CCC(N3CCN(c4ccc5c(c4)C(=O)N(C4CCC(=O)NC4=O)C5=O)CC3)CC2)cc1)c1ccc(B(O)O)cc1)c1ccccc1 (centres unmarked) [Compound 32, (E)-(4-(1-(4-(2-(4-(4-(2-(2,6-dioxopiperidin-3-yl)-1,3-dioxoisoindolin-5-yl)piperazin-1-yl)piperidin-1-yl)ethoxy)phenyl)-2-phenylbut-1-en-1-yl)phenyl)boronic acid] | < 7.30 | < 7.30 | 10 to 50 | > 90
8 | CC/C(=C(\c1ccc(OCCN2CCC(C3CCN(c4ccc5c(c4)C(=O)N(C4CCC(=O)NC4=O)C5=O)CC3)CC2)cc1)c1ccc(B(O)O)cc1)c1ccccc1 (centres unmarked) [Compound 34, (E)-(4-(1-(4-(2-(1′-(2-(2,6-dioxopiperidin-3-yl)-1,3-dioxoisoindolin-5-yl)-[4,4′-bipiperidin]-1-yl)ethoxy)phenyl)-2-phenylbut-1-en-1-yl)phenyl)boronic acid] | 7.30 to 8.00 | 7.30 to 8.00 | < 10 | > 90
9 | CC/C(=C(/c1ccc(OCCCCCN2CCN(c3ccc4c(c3)CN(C3CCC(=O)NC3=O)C4=O)CC2)cc1)c1ccc(B(O)O)cc1)c1ccccc1 (centres unmarked) [Compound 35, (Z)-(4-(1-(4-((5-(4-(2-(2,6-dioxopiperidin-3-yl)-1-oxoisoindolin-5-yl)piperazin-1-yl)pentyl)oxy)phenyl)-2-phenylbut-1-en-1-yl)phenyl)boronic acid] | 7.30 to 8.00 | 7.30 to 8.00 | 10 to 50 | > 90
10 | CC/C(=C(\c1ccc(OCCCCCN2CCN(c3ccc4c(c3)CN(C3CCC(=O)NC3=O)C4=O)CC2)cc1)c1ccc(B(O)O)cc1)c1ccccc1 (centres unmarked) [Compound 36] | 7.30 to 8.00 | 7.30 to 8.00 | 10 to 50 | > 90
11 | CC/C(=C(\c1ccc(OCCN2CCN(CCCN3CCN(c4ccc5c(c4)C(=O)N(C4CCC(=O)NC4=O)C5=O)CC3)CC2)cc1)c1ccc(B(O)O)cc1)c1ccccc1 (centres unmarked) [Compound 38, (E)-(4-(1-(4-(2-(4-(3-(4-(2-(2,6-dioxopiperidin-3-yl)-1,3-dioxoisoindolin-5-yl)piperazin-1-yl)propyl)piperazin-1-yl)ethoxy)phenyl)-2-phenylbut-1-en-1-yl)phenyl)boronic acid] | 7.30 to 8.00 | 7.30 to 8.00 | < 10 | > 90
12 | CC/C(=C(\c1ccc(B(O)O)cc1)c1ccc(N2CCC(CNC3CCN(c4ccc5c(c4)C(=O)N(C4CCC(=O)NC4=O)C5=O)CC3)CC2)cc1)c1ccccc1 (centres unmarked) [Compound 39, (Z)-(4-(1-(4-(4-(((1-(2-(2,6-dioxopiperidin-3-yl)-1,3-dioxoisoindolin-5-yl)piperidin-4-yl)amino)methyl)piperidin-1-yl)phenyl)-2-phenylbut-1-en-1-yl)phenyl)boronic acid] | 7.30 to 8.00 | 7.30 to 8.00 | < 10 | > 90
13 | CC/C(=C(/c1ccc(B(O)O)cc1)c1ccc(N2CCC(CNC3CCN(c4ccc5c(c4)C(=O)N(C4CCC(=O)NC4=O)C5=O)CC3)CC2)cc1)c1ccccc1 (centres unmarked) [Compound 40, (E)-(4-(1-(4-(4-(((1-(2-(2,6-dioxopiperidin-3-yl)-1,3-dioxoisoindolin-5-yl)piperidin-4-yl)amino)methyl)piperidin-1-yl)phenyl)-2-phenylbut-1-en-1-yl)phenyl)boronic acid] | 7.30 to 8.00 | 7.30 to 8.00 | < 10 | > 90
14 | CC/C(=C(/c1ccc(OCCN2CCN(c3ccc4c(c3)C(=O)N(C3CCC(=O)NC3=O)C4=O)CC2)cc1)c1ccc(B(O)O)cc1)c1ccccc1 (centres unmarked) [Compound 41, (Z)-(4-(1-(4-(2-(4-(2-(2,6-dioxopiperidin-3-yl)-1,3-dioxoisoindolin-5-yl)piperazin-1-yl)ethoxy)phenyl)-2-phenylbut-1-en-1-yl)phenyl)boronic acid] | 7.30 to 8.00 | 7.30 to 8.00 | 10 to 50 | > 50
